Counter-ions that a name gives are not always drawn.
Tested on: isolated rat aorta
Test: Calcium inhibitory properties: contractile response to potassium-induced depolarization on isolated rat aorta
Set-up: species or system isolated organ, male Wistar rats
Details: for activity at 1 µM / activity at 0.1 µM / activity at 0.01 µM / activity at 0.001 µM: Rattus norvegicus, 1 h, read-out: % of the maximum contractional effect; for activity at 0.001 µM: 10^-9 M; for % of the maximum contractional effect: 60 min
Text: It is well established that the depolarization of a smooth muscle membrane by potassium renders the latter permeable to extracellular calcium and induces muscle contraction. Consequently, the measurement of the inhibition of the contractile response to depolarization by potassium, or the measurement of a relaxation of the tonic contraction on potassium depolarization, can represent an evaluation of the power of a compound as an inhibitor of the membrane permeability to Ca^++ ions. The technique used was as follows: The aorta was removed from male Wistar rats weighing approximately 300 g, and cut into strips approximately 40 mm long and 3 mm wide. These fragments were placed in a 25-ml isolated organ trough containing a modified Krebs-bicarbonate solution (112 mM NaCl; 5 mM KCl; 25 mM NaHCO3; 1 mM KH2 PO4; 1.2 mM MgSO4; 2.5 mM CaCl2; 11.5 mM glucose, distilled water to 1000 ml) through which a stream of 5-7% carbon dioxide in oxygen was passed, and maintained at 37° C. The preparation was connected to a force microsensor and the contractile response recorded after amplification on a recorder. A tension of 2 g was applied to the preparation. This tension was maintained for 60 minutes in the modified Krebs-bicarbonate solution, and contractions were then induced by replacing the Krebs-bicarbonate solution by a potassium-Krebs solution (17 mM NaCl; 100 mM KCl; 25 mM NaHCO3; 1 mM KH2 PO4; 1.2 mM MgSO4; 2.5 mM CaCl2; 11.5 mM glucose; distilled water to 1000 ml). When the contractile response of the preparation had become reproducible, a given amount of a compound of the invention was introduced into the bath. Sixty minutes later, a new spasm was induced by potassium depolarization. The results obtained on the aorta used in the experiment were then expressed as a percentage of the maximum contractional effect before incubation with the test substance. By way of examples, the results which follow were obtained, the compounds of formula (1) being in the form of the base, hydrochloride or oxalate.

[1] = head printed "10^-" (exponent missing; first of three columns before 10^-6 M)

| SMILES | activity at 1 µM (10^-6 M) [%] | activity at 0.1 µM (10^-7 M) [%] | activity at 0.01 µM (10^-8 M) [%] | % of the maximum contractional effect [1] [%] | other results |
| --- | --- | --- | --- | --- | --- |
| CCCCCCCCN(CCCCCCCC)CCCOc1ccc(S(=O)(=O)c2c(C(C)C)cn3ccccc23)cc1 [Ex. 36, 2-Isopropyl-1-{4-[3-(di-n-octylamino)propyloxy]-benzenesulphonyl}indolizine] | 83.3 | 93.7 |  |  |  |
| CCCCCN(CCCCC)CCCOc1ccc(S(=O)(=O)c2c(C(C)C)cn3ccccc23)cc1 [Ex. 37, 2-Isopropyl-1-{4-[3-(di-n-pentylamino)propyloxy]-benzenesulphonyl}indolizine hydrochloride] |  | 48.7 | 77.8 |  |  |
| CCc1cn2ccccc2c1S(=O)(=O)c1ccc(OCCCn2ccnc2)cc1 [Ex. 38, 2-Ethyl-1-{4-[3-(1-imidazolyl)propyloxy]benzenesulphonyl}indolizine] |  | 85.9 |  |  |  |
| CCCCN(CCCC)CCCCOc1ccc(S(=O)(=O)c2c(C(C)C)cn3ccccc23)cc1 [Ex. 39, 2-Isopropyl-1-{4-[4-(di-n-butylamino)butyloxy]benzenesulphonyl}indolizine] |  | 17.9 | 62.9 |  |  |
| CCCCN(CCCC)CCCCCOc1ccc(S(=O)(=O)c2c(CC)cn3ccccc23)cc1 [Ex. 40, 2-Ethyl-1-{4-[5-(di-n-butylamino)pentyloxy]benzenesulphonyl}indolizine] |  | 49.7 | 87.9 |  |  |
| COc1ccc(CN(C)CCCOc2ccc(S(=O)(=O)c3c(C(C)C)cn4ccccc34)cc2)cc1OC [Ex. 41, 2-Isopropyl-1-[4-{3-[N-methyl-N-(3,4-dimethoxybenzyl)-amino]propyloxy}benzenesulphonyl]indolizine] |  | 5.3 | 26.1 |  | activity at 0.001 µM: 70.9% |
| COc1ccc(NCCCOc2ccc(S(=O)(=O)c3c(C(C)C)cn4ccccc34)cc2)cc1OC [Ex. 44, 2-Isopropyl-1-{4-[3-(3,4-dimethoxyanilino)propyloxy]benzenesulphonyl}indolizine hydrochloride] | 29.8 | 78.9 | 89.5 |  |  |
| CCCCN(CCCC)CCCOc1ccc(Sc2ccncc2)cc1.O=C(O)C(=O)O.O=C(O)C(=O)O [Ex. 56, 4-{4-[3-(di-n-butylamino)propyloxy]phenylthio}pyridine dioxalate] | 58 | 86.2 |  | 2.6 |  |
| COc1ccc(CCN(C)CCCOc2ccc(Sc3ccncc3)cc2)cc1OC [Ex. 57, 4-[4-{3-[N-methyl-N-(3,4-dimethoxy-β-phenethyl)amino]propyloxy}phenylthio]pyridine oxalate] | 59 | 85 |  | 3.1 |  |
| CCCCN(CCCC)CCCOc1ccc(S(=O)(=O)c2ccccn2)cc1 [Ex. 58, 2-{4-[3-(di-n-butylamino)propyloxybenzenesulphonyl}pyridine oxalate] | 84.7 | 88.9 |  | 37 |  |
| CCCCN(CCCC)CCCOc1ccc(S(=O)(=O)c2ccncc2)cc1.O=C(O)C(=O)O.O=C(O)C(=O)O [Ex. 60, 4-{4-[3-(di-n-butylamino)propyloxy]benzenesulphonyl}pyridine dioxalate] | 75.5 | 89.7 |  | 20.2 |  |
| COc1ccc(CCN(C)CCCOc2ccc(S(=O)(=O)c3ccncc3)cc2)cc1OC [Ex. 61, 4-[4-{3-[N-methyl-N-(3,4-dimethoxy-βphenethyl)amino]propyloxy}benzenesulphonyl]pyridine oxalate] | 70.7 | 88 |  | 14 |  |
| CC(C)(C)NCCCOc1ccc(S(=O)(=O)c2ccccn2)cc1 [Ex. 62, 2-{4-[3-(tertiobutylamino)propyloxy]benzenesulphonyl}pyridine oxalate] | 87.1 |  |  | 70.6 |  |
| CCCCN(CCCC)CCCOc1ccc(S(=O)(=O)c2ccoc2C(C)C)cc1 [Ex. 78, 2-isopropyl-3-{4-[3-(di-n-butylamino)propyloxy]benzenesulphonyl}furan oxalate] | 4 | 59.4 | 90.3 |  |  |
| CC(C)c1occc1S(=O)(=O)c1ccc(OCCCNC(C)(C)C)cc1 [Ex. 79, 2-isopropyl-3-{4-[3-(tert-butylamino)propyloxy]benzenesulphonyl}furan oxalate] | 10.3 | 77.9 | 94.3 |  |  |
| COc1ccc(CCN(C)CCCOc2ccc(Sc3cnnc4ccccc34)cc2)cc1OC [Ex. 80, 4-[4-{3-[N-methyl-N-(3,4-dimethoxy-β-phenethyl)amino]propyloxy}phenylthio]cinnoline oxalate] | 64.2 | 85.4 |  | 3.0 |  |
| COc1ccc(CCN(C)CCCOc2ccc(S(=O)(=O)c3cc4ccccc4nn3)cc2)cc1OC [Ex. 81, 3-[4-{3-[N-methyl-N-(3,4-dimethoxy-β-phenethyl)amino]propyloxy}benzenesulphonyl]cinnoline oxalate] | 73.1 | 86.6 |  | 19.2 |  |
| COc1ccc(CCN(C)CCCOc2ccc(Sc3cc4ccccc4nn3)cc2)cc1OC [Ex. 82, 3-[4-{3-[N-methyl-N-(3,4-dimethoxy-β-phenethyl)amio]propyloxy}phenylthio]cinnoline oxalate] | 55 | 90.2 |  | 6.7 |  |
| COc1ccc(CN(C)CCCOc2ccc(S(=O)(=O)c3c(C(C)C)oc4ccccc34)cc2)cc1OC [Ex. 88, 2-isopropyl-3-[4-{3-[N-methyl-N-(3,4-dimethoxy-benzyl)amino)propyloxy}benzenesulphonyl]benzofuran acid oxalate] | 8.7 | 11.2 | 61.9 |  | activity at 0.001 µM: 87% |
| COc1ccc(CN(C)CCOc2ccc(S(=O)(=O)c3c(C(C)C)oc4ccccc34)cc2)cc1OC [Ex. 89, 2-Isopropyl-3-[4-{2-[N-methyl-N-(3,4-dimethoxy-benzyl)amino]ethyloxy}benzenesulphonylbenzofuran hemioxalate] |  | 4.7 | 53.3 |  | activity at 0.001 µM: 83.9% |
| COc1ccc(CCN(C)CCCOc2ccc(S(=O)(=O)c3c(C(C)C)oc4ccccc34)cc2)cc1OC.O=C(O)C(=O)O [Ex. 90, 2-Isopropyl-3-[4-{3-[N-methyl-N-(3,4-dimethoxy-β-phenethyl)amino]propyloxy}benzenesulphonyl]benzofuran acid oxalate] |  |  |  |  | % of the maximum contractional effect (10^-6 M, 1 µM): 0%; % of the maximum contractional effect (10^-7 M, 0.1 µM): 21.3%; % of the maximum contractional effect (10^-8 M, 0.01 µM): 56.9% |
| COc1ccc(CCN(C)CCOc2ccc(S(=O)(=O)c3c(C(C)C)oc4ccccc34)cc2)cc1OC [Ex. 91, 2-Isopropyl-3-[4-{2-[N-methyl-N-(3,4-dimethoxy-β-phenethyl)amino]ethyloxy}benzenesulphonylbenzofuran hemioxalate] |  | 11.1 | 53.9 |  |  |
| COc1ccc(CN(C)CCCCOc2ccc(S(=O)(=O)c3c(C(C)C)oc4ccccc34)cc2)cc1OC [Ex. 92, 2-Isopropyl-3-[4-{4-[N-methyl-N-(3,4-dimethoxy-benzyl)amino]butyloxy}benzenesulphonyl]benzofuran hemioxalate] | 3.8 | 31.5 | 61 |  | activity at 0.001 µM: 80.8% |

Source: patent publication US5147878A, “Aminoalkoxyphenyl derivatives, process of preparation and compositions containing the same” (Sanofi, priority 1986, dated 1992)
